Laboratory results: US9535067B2, “DOT1L probes” (DANA-FARBER CANCER INSTITUTE, INC., priority 2013, dated 2017)

Molecular target: DOT1L (Homo sapiens, UniProt Q8TEK3)
Test: Differential Scanning Fluorimetry (DFS) Assay
Format: binding
Source text: DFS enables assays suitable for high throughput screening assays for the effect of a small molecule on protein stability. DFS assays measures the thermal stability of a target protein and a subsequent increase in protein melting temperature upon binding of a ligand to the protein. Generally, specific binding will stabilize the protein. An exemplary protocol for performing a DFS for detecting the binding of (with or without a test compound) a fluorescence labeled probe to DOT1L, or an analog thereof, is as follows.
First, a protein solution comprising DOT1L or an active fragment thereof (e.g., DOT1L SET domain) is prepared in a suitable buffer at a desired concentration (e.g., 0.1 μM. 0.5 μM, 1.0 μM, 2.5 μM, 5.0 μM, 10 μM, 20 μM, or 100 μM). Then, a probe solution comprising a compound of formula (I), (le), (If) or (Ig) is prepared. A volume of the protein solution is combined with a volume of the probe solution in the presence or absence of a test compound. Binding of the probe to DOT1L or an active fragment thereof is then measured using a fluorometer.

DOT1L, sequence (Q8TEK3 whole entry, species assumed): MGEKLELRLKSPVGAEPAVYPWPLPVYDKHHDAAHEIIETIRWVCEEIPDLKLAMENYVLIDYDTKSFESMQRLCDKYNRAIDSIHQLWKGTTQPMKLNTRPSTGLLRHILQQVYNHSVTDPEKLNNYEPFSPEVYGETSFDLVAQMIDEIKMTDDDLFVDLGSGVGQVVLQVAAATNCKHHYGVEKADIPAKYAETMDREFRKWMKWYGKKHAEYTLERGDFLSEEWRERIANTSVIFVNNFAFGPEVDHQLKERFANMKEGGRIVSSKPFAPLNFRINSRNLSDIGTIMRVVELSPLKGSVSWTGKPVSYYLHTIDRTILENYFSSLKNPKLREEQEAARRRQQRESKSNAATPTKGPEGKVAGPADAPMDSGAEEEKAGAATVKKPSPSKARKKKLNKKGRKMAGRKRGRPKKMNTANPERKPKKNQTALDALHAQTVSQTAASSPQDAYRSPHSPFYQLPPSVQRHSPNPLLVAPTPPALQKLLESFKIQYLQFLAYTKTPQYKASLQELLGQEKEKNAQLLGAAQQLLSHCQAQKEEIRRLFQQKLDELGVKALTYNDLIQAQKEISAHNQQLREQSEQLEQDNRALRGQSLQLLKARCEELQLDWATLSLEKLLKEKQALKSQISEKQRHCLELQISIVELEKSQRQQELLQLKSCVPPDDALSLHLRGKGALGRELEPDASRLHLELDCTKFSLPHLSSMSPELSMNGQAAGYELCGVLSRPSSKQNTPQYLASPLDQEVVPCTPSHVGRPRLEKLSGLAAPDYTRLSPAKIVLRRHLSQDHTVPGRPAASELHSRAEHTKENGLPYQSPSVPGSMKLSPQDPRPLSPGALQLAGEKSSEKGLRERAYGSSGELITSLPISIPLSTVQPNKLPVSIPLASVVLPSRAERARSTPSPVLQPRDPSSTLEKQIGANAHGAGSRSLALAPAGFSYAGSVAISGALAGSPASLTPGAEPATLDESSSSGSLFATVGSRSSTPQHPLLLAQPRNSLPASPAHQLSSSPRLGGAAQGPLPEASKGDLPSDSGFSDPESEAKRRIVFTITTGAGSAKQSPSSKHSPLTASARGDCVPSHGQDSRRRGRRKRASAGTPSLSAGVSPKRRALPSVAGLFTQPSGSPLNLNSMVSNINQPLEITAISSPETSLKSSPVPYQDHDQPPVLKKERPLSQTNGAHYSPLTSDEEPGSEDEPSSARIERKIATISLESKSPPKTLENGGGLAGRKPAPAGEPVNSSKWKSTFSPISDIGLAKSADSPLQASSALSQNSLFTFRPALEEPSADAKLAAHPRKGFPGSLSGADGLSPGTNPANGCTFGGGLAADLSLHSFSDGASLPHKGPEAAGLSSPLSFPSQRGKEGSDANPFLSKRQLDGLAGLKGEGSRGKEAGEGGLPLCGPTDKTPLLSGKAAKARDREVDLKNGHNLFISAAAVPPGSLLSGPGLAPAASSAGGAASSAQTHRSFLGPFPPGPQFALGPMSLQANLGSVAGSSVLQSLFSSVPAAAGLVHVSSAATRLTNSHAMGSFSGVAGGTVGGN

binding effect / binding affinity against DOT1L (thermal stabilisation, FIG. 1): reasonable binding affinity
SMILES: CC(C)N(CCCNC(=O)Nc1ccc(C(C)(C)C)cc1)C[C@H]1O[C@@H](n2cnc3c(NCCCC(=O)NCCCOCCOCCOCCCNC(=O)CCCC[C@@H]4SC[C@@H]5NC(=O)N[C@@H]54)ncnc32)[C@H](O)[C@@H]1O [JQPROB2B]
